The subject of one assay is Meloidogyne incognita. The assay can be described thus: M. incognita miniaturized greenhouse assay on cucumber seedlings (root galling). Type of assay: in vivo. The arrangement: key to 1 ppm gall ratings / 1 ppm gall rating: mean of 3 gall ratings: 0=0-5%, 1=6-20%, 2=21-50%, 3=51-100% root galled. As to conditions: for 8 ppm gall ratings: average of triplicate gall rating, scale 0-3 (% root mass galled). In short, it runs like this:
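Compound in acetone/Triton X100 stock (5 mg/mL) diluted into water with 0.015% Triton X100 and applied to sand-planted sprouted cucumber seedlings; inoculated with 500 M. incognita eggs two days after planting. Roots harvested 10–12 days later; galling scored 0–3 by % root mass galled, averaged over triplicates, plus visual root phytotoxicity rating.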

The next assay deals with root knot nematode (RKN). The assay can be described thus: RKN greenhouse soil assay on cucumber plants. The format is in vivo, Meloidogyne incognita. In short, it runs like this:
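Cucumber in sandy soil in pots drenched with 5 ml compound solution (acetone in 0.05% Triton X 100; 1 mg per four pots = 1 kg/ha), 7 days or 0 days before inoculation. Root knot nematode eggs applied ≥4 h after treatment; galling rated 14 days after inoculation, four replicates.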

The test system of a further assay is root knot nematode. The assay can be described thus: Pre-plant incorporated (PPI) greenhouse test of root knot nematode on cucumber plants. Type of assay: in vivo, Meloidogyne incognita. The note with it: for pest or weed control at 4000 g/ha / pest or weed control at 8000 g/ha / pest or weed control at 2000 g/ha: Meloidogyne incognita, read-out: percent control (galling reduction) relative to the control blank treatment. In short, it runs like this: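 Compound from acetone stock (4 mg in 4 ml), diluted into 0.05%×100 and mixed into sandy field-soil mix at 8, 4 or 2 kg/ha, equivalent to 2, 1 and 0.5 kg/ha drench. Cucumbers sown 0, 7 or 14 days after treatment, nematode eggs added one week later, harvest 14 days post-inoculation; 4 pots/treatment.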

Where [1] appears, read: 0 day treatment, 0.05 kg/ha, test a.
The mark [2] stands for this setting: 0 day treatment, 0.1 kg/ha, test a.
The mark [3] stands for this setting: 0 day treatment, 0.25 kg/ha, test a.
[4] abbreviates: 0 day treatment, 1 kg/ha, test b.
The mark [5] stands for this setting: Acetone 1 mg/kg, standard 10% acetone in 0.05% Triton X 100 formulation.
Where [6] appears, read: Radex 1 mg/kg, emulsifiable concentrate, 6.25% active ingredient by weight.
[7] abbreviates: 24 h, twenty one day pre-plant incorporated, 4 kg/ha rate.
Where [8] appears, read: 24 h, twenty one day pre-plant incorporated, 8 ka/ha rate.
Setting [9] is: fourteen day pre-plant incorporated, 2 kg/ha rate, test a.
Setting [10] is: fourteen day pre-plant incorporated, 4 kg/ha rate, test a.
Setting [11] is: fourteen day pre-plant incorporated, 8 ka/ha rate, test a.
Where [12] appears, read: fourteen day pre-plant incorporated, 4 kg/ha rate, test b.
Where [13] appears, read: fourteen day pre-plant incorporated, 8 ka/ha rate, test b.

Read-outs that look alike come from different tables or passages of the source. Marks after values point to notes of the source that are not given here.

For the molecule `c1ccc(-c2noc(-c3cccs3)n2)cc1` [compound 1822], the “1 ppm gall ratings” value is given as 0.33 in the assay on Meloidogyne incognita (Table 1B test a), 0.67 with Meloidogyne incognita (Table 1B test b), 0.33 in the assay with Meloidogyne incognita (Table 1B test c) and 0 (0=0-5%) in the assay with Meloidogyne incognita (Table 1B test d). The “1 ppm gall rating” value is recorded as 0 (0=0-5%) in the assay on Meloidogyne incognita (Table 1C test a), 0.33 in the assay with Meloidogyne incognita (Table 1C test b) and 1.33^a in the assay on Meloidogyne incognita (Table 1D test a). The “8 ppm gall rating” value in the assay on Meloidogyne incognita (Table 1D test a) is reported as 0^a (0=0-5%). For the same molecule, the “8 ppm gall ratings” value with Meloidogyne incognita is reported as 0 (0=0-5%). Moreover, the “percent control (galling reduction) relative to the control blank treatment” value in the assay on root knot nematode (RKN) (setting [1]) is on record as 7^a percent; with root knot nematode (RKN) (setting [2]), 47^a percent; in the assay on root knot nematode (RKN) (setting [3]), 60%; in the assay with root knot nematode (RKN) (0 day treatment, 0.25 kg/ha, test b), 64%; in the assay with root knot nematode (RKN) (0 day treatment, 1 kg/ha, test a), 89%; with root knot nematode (RKN) (setting [4]), 81%. The “percent control (galling reduction) relative to the control blank treatment” value with root knot nematode (RKN) (7 day treatment, 1 kg/ha, test a) turned out to be 85%; in the assay on root knot nematode (RKN) (7 day treatment, 1 kg/ha, test b), 75%. Further, the results for the “percent control (galling reduction) relative to the appropriate control blank treatment” value in the assay with root knot nematode (RKN) (setting [5]) and in the assay with root knot nematode (RKN) (setting [6]) were 94% and 98%, respectively. Moreover, the pest or weed control at 4000 g/ha in the assay on root knot nematode (setting [7]) is 82%; with root knot nematode (168 h, seven day pre-plant incorporated, 4 kg/ha rate), 99%; in the assay with root knot nematode (setting [10]) it was 97%. Besides, the pest or weed control at 8000 g/ha was found to be 95% in the assay on root knot nematode (setting [8]); 99% with root knot nematode (168 h, seven day pre-plant incorporated, 8 ka/ha rate); 100% in the assay with root knot nematode (setting [11]). Moreover, the pest or weed control at 2000 g/ha in the assay with root knot nematode (setting [9]) stood at 67%.
For `Brc1ccc(-c2cnc(-c3cccs3)o2)cc1` [compound 4776], the “1 ppm gall ratings” value in the assay on Meloidogyne incognita (Table 1B test a) is 1 (1=6-20%); with Meloidogyne incognita (Table 1B test b), 1 (1=6-20%); in the assay on Meloidogyne incognita (Table 1B test c), 0.33; with Meloidogyne incognita (Table 1B test d), 0.33. The “1 ppm gall rating” value with Meloidogyne incognita (Table 1C test a) is 1 (1=6-20%); in the assay with Meloidogyne incognita (Table 1C test b), 0.33; in the assay with Meloidogyne incognita (Table 1C test c) it was 1 (1=6-20%); in the assay on Meloidogyne incognita (Table 1D test a) it was 0^a (0=0-5%). Further, in the assay on Meloidogyne incognita (Table 1D test a), the “8 ppm gall rating” value is 0^a (0=0-5%). Also, the “8 ppm gall ratings” value with Meloidogyne incognita is 0 (0=0-5%). Also, the “percent control (galling reduction) relative to the control blank treatment” value in the assay on root knot nematode (RKN) (setting [4]) is “— 99^b percent”. In the assay with root knot nematode (setting [7]), the pest or weed control at 4000 g/ha was found to be 50%. In addition, the pest or weed control at 8000 g/ha in the assay on root knot nematode (setting [8]) was found to be 80%.
As to `Cc1cc(Cl)ccc1-c1noc(-c2ccco2)n1` [compound 5823], the “1 ppm gall ratings” value is reported as 1.67 in the assay on Meloidogyne incognita (Table 1B test a), 0.33 in the assay on Meloidogyne incognita (Table 1B test b) and 0.33 in the assay on Meloidogyne incognita (Table 1B test e). Moreover, the “percent control (galling reduction) relative to the control blank treatment” value in the assay with root knot nematode (RKN) (setting [1]) is 53%; with root knot nematode (RKN) (0 day treatment, 0.05 kg/ha, test c), 38%; in the assay on root knot nematode (RKN) (setting [2]), 85%; in the assay with root knot nematode (RKN) (0 day treatment, 0.1 kg/ha, test c), 91%; in the assay on root knot nematode (RKN) (setting [3]), 95%; in the assay on root knot nematode (RKN) (0 day treatment, 0.25 kg/ha, test c), 98%. Also, the pest or weed control at 2000 g/ha with root knot nematode (setting [9]) is 85%. Also, the pest or weed control at 4000 g/ha in the assay on root knot nematode (setting [10]) was determined as 98%; in the assay on root knot nematode (setting [12]), 94%. Moreover, the pest or weed control at 8000 g/ha in the assay on root knot nematode (setting [11]) and in the assay with root knot nematode (setting [13]) was 100% throughout.
Turning to `CCOP(=O)(NC(C)C)Oc1ccc(SC)c(C)c1` (stereo not shown) [Fenamiphos, fenamiphos, reference compound], the “1 ppm gall ratings” value in the assay with Meloidogyne incognita (Table 1B test c) is on record as 0^c, 0^d, 0^e (0=0-5%); with Meloidogyne incognita (Table 1B test d), 0^c, 0^d, 0^e (0=0-5%); in the assay with Meloidogyne incognita (Table 1B test e), 0^c, 0^d, 0^e (0=0-5%). In addition, the “percent control (galling reduction) relative to the appropriate control blank treatment” value in the assay on root knot nematode (RKN) (setting [5]) was 98%; in the assay on root knot nematode (RKN) (setting [6]), 99%. Moreover, the “percent control (galling reduction) relative to the control blank treatment” value in the assay with root knot nematode (setting [9]) is given as 88^a percent; in the assay with root knot nematode (setting [10]), 99^a percent; in the assay with root knot nematode (setting [12]) it was 100^b percent; in the assay on root knot nematode (setting [11]), 100^a percent; in the assay on root knot nematode (setting [13]) it was 100^b percent; in the assay on root knot nematode (seven day pre-plant incorporated, 4 kg/ha rate), 96%. Moreover, the “percent control (galling reduction) relative to the control blank treatment” value is given as 100% in the assay on root knot nematode (seven day pre-plant incorporated, 8 ka/ha rate); 84% with root knot nematode (twenty one day pre-plant incorporated, 4 kg/ha rate); 99% in the assay on root knot nematode (twenty one day pre-plant incorporated, 8 ka/ha rate).

These data come from patent US10827753B2, “Compositions and methods for controlling nematodes” (Monsanto Technology LLC, priority 2007, dated 2020).
